Source: patent publication US8454938B2, “Treatment of respiratory diseases” (Solaeromed Inc., priority 2005, dated 2013)

Test system: allergic bronchoconstriction in Brown Norway rats
Assay: Allergic asthma model: OVA-sensitized and challenged Brown Norway rats, whole body plethysmography (Penh)
Type: in vivo, Brown Norway rat
Method: An animal model of allergic asthma was developed by sensitizing Brown Norway rats (BNR) to ovalbumin (OVA) and subsequently challenging them with the same allergen.
Male Brown Norway rats (BN/SsdNhsd) 150-199 g were used. A stock solution prepared containing the following ingredients: 10 mL 0.9% of sterile saline solution, 100 μL of ovalbumin solution 1 mg/mL in saline, 1.5 g Al(OH)3 and 10 μL Bordetella Pertussis purified toxin stock solution 500 ng/mL. The solution is mixed thoroughly but not vortexed and then injected intraperitoneally into each rat using a 1 cc syringe and 25-gauge needle.
The rat is placed in the whole body plethysmograph/chamber for approximately 30 minutes in order to calm down. Baseline pulmonary function is recorded for 30 minutes. A solution of ovalbumin 5% in saline is aerosolized for 5 minutes using an ultrasonic nebulizer from Buxco®. The pulmonary function is recorded for 6 hrs during which the effects of different treatments on airway resistance were evaluated.
A whole body plethysmograph from Buxco® was used to monitor pulmonary function and the effect of perfluorocarbon fluids (PFCs) and/or different gas mixture containing CO2 on constricted airways. The plethysmograph consists of a chamber with a pressure transducer along with humidity and temperature probes connected to an amplifier Max II, which is connected to a personal computer and managed by BioSystem XA software. In addition, there are two flow regulators to pump the air or CO2 containing gas mixture in and out of the chamber, and an ultrasonic nebulizer. The primary advantage of the Buxco® methodology is that it is non-invasive and minimizes stress, with animals allowed to freely roam within the measuring chamber. The evaluation of bronchoconstriction was achieved using the Penh (enhanced pause) (an index of airway obstruction) [see Hamelmann et al., (1997) Noninvasive measurement of airway responsiveness in allergic mice using barometric plethysmography, Am J Respir Crit Care Med […] September; 156(3 Pt 1):766-775, incorporated herein by reference]. […]
A gas mixture containing air and CO2 (2, 5, 8, 10 and 20%, respectively, by volume) was delivered to the plethysmograph chamber as described above. The gas was monitored (O2 and CO2) using a gas analyzer from Buxco® and pulmonary function was recorded during and after cessation of the treatment. All treatments were delivered during the late phase response to OVA challenge. […]
FC-43 is placed in the Arcotech dual chamber jet nebulizer and driven by a gas mixture containing air and 5% CO2 by volume. The concentration of FC-43 was determined as outlined above and averaged about 39 mg/liter. The treatment was delivered for 10 minutes. Two minutes after cessation of the first treatment, salbutamol (1 mg/ml) was delivered for 5 minutes using an ultrasonic nebulizer.
FC-77 is placed in the Arcotech dual chamber jet nebulizer and driven by a gas mixture containing air and 5% CO2 by volume. The treatment was delivered for 10 minutes. For technical reasons pulmonary function was evaluated immediately after cessation of the treatment.
Perfluorodecalin is placed in the Arcotech dual chamber jet nebulizer and driven by a gas mixture containing air and 5% CO2 by volume. The treatment was delivered for 10 minutes. For technical reasons pulmonary function was evaluated immediately after cessation of the treatment.
Perfluorooctylbromide is placed in the Arcotech dual chamber jet nebulizer and driven by a gas mixture containing air and 20% CO2 by volume. The treatment was delivered for 10 minutes. For technical reasons pulmonary function was evaluated immediately after cessation of the treatment.
A mixture of approximately equal amounts of FC-43 and FC-77 was placed in the Arcotech dual chamber jet nebulizer and driven by a gas mixture containing air and 5% CO2 by volume. The treatment was delivered for 10 minutes. […]

Row | SMILES | bronchodilation by CO2 alone (2%, 5%, 8%, 10% and 20% CO2 by volume, balance air) | duration of bronchodilation (20% CO2 in air alone) | relaxation of constricted airways (percent reduction of bronchoconstriction), comparison between CO2 concentrations (20% and 8% CO2 compared with 2% and 5% CO2 in air, groups of rats) | drop in Penh (salbutamol 1 mg/ml alone) | duration of drop in Penh before returning to pretreatment levels (salbutamol 1 mg/ml alone) | duration of response (salbutamol 1 mg/ml given after PFC/CO2 treatment) | drop in Penh (response) (salbutamol 1 mg/ml given after PFC/CO2 treatment (FC-43 with 5% CO2 in air, 10 minutes))
1 | O=C=O [CO2, carbon dioxide] | acts as a bronchodilator | approximately 2 minutes | significantly (P<0.05) higher |  |  |  | 
2 | CC(C)(C)NCC(O)c1ccc(O)c(CO)c1 (stereo not shown) [salbutamol] |  |  |  | approximately 60% | 5 min | never returned to pre-treatment levels | approximately 70%
